# Experimental data as given in patent publication US20240066090A1, “COMPOSITION FOR PREVENTING, AMELIORATING, OR TREATING METABOLIC SYNDROMES INCLUDING OBESITY, DIABETES, HYPERLIPIDEMIA, AND FATTY LIVER” (NUTRACORE CO., LTD., priority 2019, published 2024).
# Legend:
# HFD mice [1] = assay: Body weight and total body/abdominal fat density (DEXA) in HFD-supplied mice; format: in vivo, ICR mice; details: test materials 200 mg/kg, metformin 250 mg/kg
# Protocol: Specifically, after acclimating total 200 6-week-old female ICR mice to a laboratory environment for 7 days, they were adapted to HFD (45% Kcal high fat diet) 1 week before the start of administration of the experimental substance, and then the experimental substance was administered, and in the normal control group, a general NFD (Normal pellet diet) was supplied by the same method.
# As the experimental substance, the LB (lemon balm extract) and CS (corn silk extract) alone and 9 kinds of LB:CS complexes (LB:CS=1:1, 1:2, 1:4, 1:6, 1:8, 2:1, 4:1, 6:1 and 8:1 (g/g)) as described in Table 1 above were used. The administration dose of the experimental substance was equally set to 200 mg/kg in total based on the medicinal efficacy investigation research of the present inventors. The experimental substance was dissolved in sterile distilled water and orally administered.
# In addition, the total body fat and abdominal fat density were measured using DEXA (live dual-energy x-ray absorptiometry) and the result was shown in FIG. 4.
# HFD mice [2] = assay: Periovarian and abdominal wall fat pad thickness, adipocyte size and accumulated fat weight in HFD-supplied mice; format: in vivo, ICR mice; details: test materials 200 mg/kg oral, Metformin 250 mg/kg, mean±SD for 8 mice
structure (smiles),measurement,setting,value
CN(C)C(=N)N=C(N)N [Metformin],Time after the start of administration at which a significant (p<0.01 or p<0.05) decrease of body weight and fat density compared to the HFD control group began,HFD mice [1],21 days
same,"Body weight and fat density during the 84-day administration period, compared to the HFD control group (groups listed in order of effect)",HFD mice [1]; 84 days,significant (p<0.01) decrease
same,Abdominal wall fat pads Adipocyte diameters,HFD mice [2],64.49 ± 13.74^ab μm
same,Abdominal wall fat pads Thickness,HFD mice [2],2.99 ± 0.49^fg mm
same,Periovarian fat pads Adipocyte diameters,HFD mice [2],48.12 ± 6.36^fg μm
same,Periovarian fat pads Thickness,HFD mice [2],2.83 ± 0.43^ab mm
